# Reference: patent publication US20050255041A1, “Cancerous disease modifying antibodies” (Arius Research, Inc., priority 2004, published 2005)
# Like-named read-outs stand apart in the source and are kept apart here.
# What was measured:
# [1] = Live/Dead cytotoxicity assay, hybridoma supernatant; format: cell-based; conditions: human, hybridoma supernatant (or cycloheximide positive control), calcein
# Method: Three human breast cancer cell lines were tested: MDA-MB-231, MDA-MB-468 and SKBR-3. […] The wells that served as the positive controls were aspirated until empty and 100 μL of sodium azide (NaN3) or cycloheximide was added. After 5 days of treatment, the plates were then emptied by inverting and blotting dry. […] The AR2A72.10 hybridoma produced specific cytotoxicity of 15,27 and 44 percent in MDA-MB-231, MDA-MB-468 and SKBR-3 cells respectively. The known non-specific cytotoxic agent cycloheximide produced cytotoxicity as expected given the limitations of in vitro biological assays.
# Hs888 Lu = conditions: 5 days; AR2A72.10 and AR3BD-26 20 μg/mL, anti-fas and anti-Her2/neu 10 μg/mL, anti-EGFR 5 μg/mL, cycloheximide 0.5 μM, NaN3 0.1%
# Method: Antibodies were tested against a panel of ovarian cancer, and normal cell lines. Two ovarian cancer (OVCAR-3, Sk-OV-3) and non-cancer (CCD-27sk, Hs888.Lu) cell lines were obtained from the ATCC, Manassas, Va. A2780-cp, A2780-s, C-13, OV2008, ES-2, Hey, OCC-1, OVCA-429 were obtained from the Ottawa Regional Cancer Center (Ottawa, ON). The Live/Dead cytotoxicity assay was obtained from Molecular Probes (Eugene, Oreg.). The assays were performed according to the manufacturer's instructions with the changes outlined below. Cells were plated before the assay at the predetermined appropriate density. After 2 days, purified antibody or controls were diluted into media, and then 100 microliters were transferred to the cell plates and incubated in a 5 percent CO2 incubator for 5 days. The plate was then emptied by inverting and blotted dry. Room temperature DPBS containing MgCl2 and CaCl2 was dispensed into each well from a multi-channel squeeze bottle, tapped three times, emptied by inversion and then blotted dry. 50 microliters of the fluorescent calcein dye diluted in DPBS containing MgCl2 and CaCl2 was added to each well and incubated at 37° C. in a 5 percent CO2 incubator for 30 minutes. […]
smiles,measurement,setting,value
C[C@@H]1C[C@@H]([C@H](O)CC2CC(=O)NC(=O)C2)C(=O)[C@@H](C)C1 [Cycloheximide],cytotoxicity at 5 days,[1]; read-out: Cytotoxicity (%) MDA-MB-231 Average,49%
same,cytotoxicity at 5 days,[1]; read-out: Cytotoxicity (%) MDA-MB-468 Average,24%
same,cytotoxicity at 5 days,[1]; read-out: Cytotoxicity (%) SKBR-3 Average,56%
"[N-]=[N+]=[N-] [NaN3, sodium azide]","In vitro cytotoxicity, Hs888 Lu (normal)",Hs888 Lu,+++ (4/4 experiments greater than threshold cytotoxicity)
